Here are results for 39 compounds from patent publication US20130296311A1, “INHIBITORS OF HCV NS5A” (PRESIDIO PHARMACEUTICALS, INC., priority 2010, published 2013).

The first assay concerns HCV 1b_Huh-Luc/Neo-ET cell line persistently expressing a bicistronic genotype 1b replicon in Huh 7 cells. The experiment in a line: HCV replicon assay (luciferase readout, 72 h). The note with it: Hepatitis C virus, Huh-7, 72 h, read-out: Inhibition of HCV genotype 1b. The assay is classed as cell-based, HCV genotype 1b. A digest of the protocol: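 EC50 values come from a four-parameter fit of luciferase signal as % of untreated control, repeated across several determinations. The signal is from the HCV 1b_Huh-Luc/Neo-ET replicon line, dosed in triplicate one day post-plating and incubated 72 h before Bright-Glo readout.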
On to `COC(=O)N[C@H](C(=O)N[C@@H](C)c1ncc(-c2ccc(C#Cc3ccc(-c4cnc([C@@H]5CCCN5C(=O)[C@@H](C(C)C)N(C)C)[nH]4)cc3)cc2)[nH]1)C(C)C` [Compound 964], for which the EC50 lay within 1 to 9.9 nM. Consider `COC(=O)N[C@H](C(=O)N1CCC[C@H]1c1nc2c([nH]1)-c1ccc(C#Cc3ccc4nc([C@@H]5CCCN5C(=O)[C@H](NC(=O)OC5CCOCC5)c5ccccc5)[nH]c4c3)cc1CC2)C(C)C` [Compound 1104], for which the EC50 is less than 1 nM. On the same count and under the same terms, the same measure for `C[C@@H](c1ncc(-c2ccc(C#Cc3ccc(-c4cnc([C@@H]5CCCN5C(=O)[C@H](NC(=O)C5CC5)c5ccccc5)[nH]4)cc3)cc2)[nH]1)N(C)C(=O)[C@H](NC(=O)C1CC1)c1ccccc1` [Compound 278]: less than 1 nM; for `COC(=O)N[C@H](C(=O)N1CCC[C@H]1c1ncc(C#Cc2ccc(-c3ccc4nc([C@@H]5CCCN5C(=O)[C@H](NC(=O)OC)c5ccccc5)[nH]c4c3)nc2)[nH]1)C(C)C` [Compound 1087]: less than 1 nM; for `O=C(N[C@@H](C(=O)N1CCC[C@H]1c1nc(-c2ccc3cc(C#Cc4cnc([C@@H]5CCCN5C(=O)[C@H](NC(=O)N5CCOCC5)c5ccccc5)[nH]4)ccc3c2)c[nH]1)c1ccccc1)N1CCOCC1` [Compound 808]: less than 1 nM.

As for `COC(=O)N[C@H](C(=O)N1CCC[C@H]1c1ncc(-c2cccc3c(C#Cc4ccc5nc([C@@H]6CCCN6C(=O)[C@@H](NC(=O)OC)C(C)C)[nH]c5c4)cccc23)[nH]1)C(C)C` [Compound 1112], the EC50 was less than 1 nM. For `COC(=O)N[C@@H]1CCC[C@H]1C(=O)N1CCC[C@H]1c1ncc(-c2ccc(C#Cc3ccc4nc([C@@H]5CCCN5C(=O)[C@@H]5CCC[C@H]5NC(=O)OC)[nH]c4c3)cc2)[nH]1` [Compound 1058], the EC50 was 10 to 999 nM.

For `O=C(N[C@@H](C(=O)N1CCC[C@H]1c1cc(-c2ccc(C#Cc3ccc(-c4cnc([C@@H]5CCCN5C(=O)[C@H](NC(=O)N5CCOCC5)c5ccccc5)[nH]4)cc3)cc2)n[nH]1)c1ccccc1)N1CCOCC1` [Compound 220], the EC50 was less than 1 nM. On the same count and under the same terms, the same measure for `COC(=O)N[C@H](C(=O)N1CCC[C@H]1c1nc(-c2ccc3cc(C#Cc4[nH]c([C@@H]5CCCN5C(=O)[C@@H](NC(=O)OC)C(C)C)nc4C(F)(F)F)ccc3c2)c[nH]1)C(C)C` [Compound 1082]: less than 1 nM; for `COC(=O)N[C@H](C(=O)N1CCC[C@H]1c1ncc(-c2ccc(C#Cc3ccc(-c4cnc([C@@H]5CCCN5C(=O)[C@H](NC(=O)OC)c5ccccc5)[nH]4)cc3)cc2)[nH]1)C(C)C` [Compound 1002]: less than 1 nM; for `CC(C)(C)OC(=O)N[C@@H](C(=O)N1CCC[C@H]1C(=O)NCCc1ccc(C#Cc2cnc([C@@H]3CCCN3C(=O)[C@H](NC(=O)OC(C)(C)C)c3ccccc3)[nH]2)cc1)c1ccccc1` [Compound 124]: less than 1 nM. The same measure, in the same setting: for `COC(=O)N[C@H](C(=O)N1CCC[C@H]1c1nc(-c2ccc3cc(C#Cc4cnc([C@@H]5CCCN5C(=O)[C@H](NC(=O)OC)c5ccccc5)[nH]4)ccc3c2)c[nH]1)C(C)C` [Compound 1077] the value was less than 1 nM; for `COC(=O)N[C@H](C(=O)N1CCC[C@H]1c1ncc(C#Cc2ccc(-c3ccc(-c4cnc([C@@H]5CCCN5C(=O)[C@@H](NC(=O)OC)C(C)C)[nH]4)cc3)cc2)[nH]1)C(C)C` [Compound 756], less than 1 nM; for `O=C(N[C@@H](C(=O)N1CCC[C@H]1C(=O)NCCc1ccc(C#Cc2cnc([C@@H]3CCCN3C(=O)[C@H](NC(=O)C3CC3)c3ccccc3)[nH]2)cc1)c1ccccc1)C1CC1` [Compound 125], less than 1 nM. Turning to `COC(=O)N[C@@H](C(=O)N1CCC[C@H]1c1ncc(-c2ccc(C#Cc3ccc(-c4cnc([C@@H]5CCCN5C(=O)[C@H](NC(=O)N5CCC[C@H](O)C5)c5ccccc5)[nH]4)cc3)cc2)[nH]1)c1ccccc1` [Compound 263], the EC50 was less than 1 nM.

Turning to `O=C(NCC(=O)N1CCC[C@H]1c1ncc(C#Cc2ccc(-c3cnc([C@@H]4CCCN4C(=O)CNC(=O)C4CC4)[nH]3)cc2)[nH]1)C1CC1` [Compound 113], the EC50 was 10 to 999 nM. With `COC(=O)N[C@@H](CC(=O)N1CCC[C@H]1c1ncc(-c2ccc(C#Cc3ccc4nc([C@@H]5CCCN5C(=O)C[C@H](NC(=O)OC)C(C)C)[nH]c4c3)cc2)[nH]1)C(C)C` [Compound 1064], the EC50 lay within 10 to 999 nM. Still for that read-out and setting: the same measure for `COC(=O)N[C@H](C(=O)N1CCC[C@H]1c1ncc(-c2ccc(C#Cc3ccc4c(c3)CCCc3nc([C@@H]5CCCN5C(=O)[C@@H](NC(=O)OC)C(C)C)[nH]c3-4)cc2)[nH]1)C(C)C` [Compound 1096]: less than 1 nM. Same read-out and setting: the same measure for `COC(=O)N[C@H](C(=O)N1CCC[C@H]1c1nc2c([nH]1)-c1ccc(C#Cc3ccc(-c4cnc([C@@H]5CCCN5C(=O)[C@@H](NC(=O)OC)C5CCOCC5)[nH]4)cc3)cc1CC2)C(C)C` [Compound 1091]: less than 1 nM; for `CN(C)[C@@H](C(=O)N1CCC[C@H]1c1ncc(C#Cc2ccc(-c3cnc([C@@H]4CCCN4C(=O)[C@H](NC(=O)C4CC4)c4ccccc4)[nH]3)cc2)[nH]1)c1ccccc1` [Compound 133]: less than 1 nM; for `COC(=O)N[C@@H](C(=O)N1CCC[C@H]1C(=O)Nc1ccc(C#Cc2ccc(-c3cnc([C@@H]4CCCN4C(=O)[C@H](NC(=O)OC)c4ccccc4)[nH]3)cc2)cc1)c1ccccc1` [Compound 171]: less than 1 nM. Turning to `COC(=O)N[C@@H](C(=O)N1CCC[C@H]1c1ncc(C#Cc2ccc(-c3ccc(-c4cnc([C@@H]5CCCN5C(=O)[C@H](NC(=O)OC(C)(C)C)c5ccccc5)[nH]4)cc3)cc2)[nH]1)c1ccccc1` [Compound 753], the EC50 was less than 1 nM.

In the case of `COC(=O)N[C@H](C(=O)N1CCC[C@H]1c1nc(-c2ccc3cc(C#Cc4[nH]c([C@@H]5CCCN5C(=O)[C@@H](NC(=O)OC)C(C)C)nc4C)ccc3c2)c[nH]1)C(C)C` [Compound 1081], the EC50 was less than 1 nM. Same read-out and setting: the same measure for `COC(=O)N[C@@H](C(=O)N1CCC[C@H]1c1ncc(-c2ccc(C#Cc3ccc(-c4cnc([C@@H]5CCCN5C(=O)[C@@H](c5ccccc5)N5CCCC5)[nH]4)cc3)cc2)[nH]1)c1ccccc1` [Compound 178]: less than 1 nM.

On to `O=C(NC[C@@H]1CCCN1C(=O)[C@H](NC(=O)C1CC1)c1ccccc1)c1ccc(C#Cc2ccc(-c3cnc([C@@H]4CCCN4C(=O)[C@H](NC(=O)C4CC4)c4ccccc4)[nH]3)cc2)cc1` [Compound 193], for which the EC50 was less than 1 nM. Same read-out and setting: the same measure for `COC[C@H](NC(=O)OC)C(=O)N1CCC[C@H]1c1ncc(-c2ccc(C#Cc3ccc4nc([C@@H]5CCCN5C(=O)[C@H](COC)NC(=O)OC)[nH]c4c3)cc2)[nH]1` [Compound 1037]: less than 1 nM; for `COC[C@H]1CCCN1C(=O)N[C@@H](C(=O)N1CCC[C@H]1c1ncc(-c2ccc(C#Cc3ccc(-c4cnc([C@@H]5CCCN5C(=O)[C@H](NC(=O)OC)c5ccccc5)[nH]4)cc3)cc2)[nH]1)c1ccccc1` [Compound 259]: less than 1 nM.

Turning to `COC(=O)N[C@H](C(=O)N1CCC[C@H]1c1nc(-c2ccc3cc(C#Cc4cnc([C@@H]5CCCN5C(=O)[C@@H](NC(=O)OC)C(C)C)[nH]4)ccc3c2)c[nH]1)c1ccccc1` [Compound 1078], the EC50 was less than 1 nM. Still for that read-out and setting: for `CC(C)[C@@H](NC(=O)C1CC1)C(=O)N1CCC[C@H]1C(=O)NCCc1ccc(C#Cc2cnc([C@@H]3CCCN3C(=O)[C@H](NC(=O)C3CC3)C(C)C)[nH]2)cc1` [Compound 127] the value was 10 to 999 nM; for `COC(=O)N[C@@H](CCC(=O)O)C(=O)N1CCC[C@H]1c1ncc(-c2ccc(C#Cc3ccc4nc([C@@H]5CCCN5C(=O)[C@H](CCC(=O)O)NC(=O)OC)[nH]c4c3)cc2)[nH]1` [Compound 1047], 10 to 999 nM.

Staying with this assay, now noted: Hepatitis C virus, Huh-7, read-out: Inhibition of HCV genotype 1b.
Regarding `COC(=O)N[C@H](C(=O)N1CCN(C(=O)OC)C[C@H]1c1ncc(-c2ccc(C#Cc3ccc4nc([C@@H]5CCCN5C(=O)[C@H](NC(=O)OC)c5ccccc5)[nH]c4c3)cc2)[nH]1)C(C)C` [Compound 1230], the EC50 was less than 1 nM. `CC[C@H](C)[C@H](NC(=O)OC)C(=O)N1CCC[C@H]1c1ncc(-c2ccc(C#Cc3ccc(-c4cnc([C@@H]5CCCN5C(=O)[C@@H](NC(=O)OC)C5CCOCC5)[nH]4)cc3)cc2)[nH]1` [Compound 1220]: the EC50 is less than 1 nM. Turning to `COC(=O)N[C@@H](C(=O)N1CCC[C@H]1c1ncc(-c2ccc(C#Cc3ccc(-c4cnc([C@@H]5CCCN5C(=O)[C@H](NC(=O)OC)c5ccccc5)[nH]4)cc3C#N)cc2)[nH]1)c1ccccc1` [Compound 1203], the EC50 is less than 1 nM.

Turning to `COC(=O)N[C@H](C(=O)N[C@@H](C)c1ncc(-c2ccc(C#Cc3ccc4nc([C@@H]5CCCN5C(=O)[C@@H](NC(=O)OC)C5CCOCC5)[nH]c4c3)cc2)[nH]1)C1CCOCC1` [Compound 1227], the EC50 lay within 1 to 9.9 nM. On the same count and under the same terms, the same measure for `C#CC[C@H](NC(=O)OC)C(=O)N1CCC[C@H]1c1nc2ccc(C#Cc3ccc4c(c3)CCCc3nc([C@@H]5CCCN5C(=O)[C@@H](NC(=O)OC)C(C)C)[nH]c3-4)cc2[nH]1` [Compound 1284]: less than 1 nM; for `COC(=O)N[C@H](C(=O)N1CCC[C@H]1c1ncc(-c2ccc3cc(C#Cc4[nH]c([C@@H]5CCCN5C(=O)[C@@H](NC(=O)OC)C5CCOCC5)nc4C(F)(F)F)ccc3c2)[nH]1)C1CCOCC1` [Compound 1256]: less than 1 nM. On the same count and under the same terms, the same measure for `COC(=O)N[C@H](C(=O)N1CCC[C@H]1c1ncc(-c2ccc3cc(C#Cc4[nH]c([C@@H]5CCCN5C(=O)[C@@H](NC(=O)OC)[C@@H](C)OC)nc4C(F)(F)F)ccc3c2)[nH]1)C1CCCC1` [Compound 1260]: less than 1 nM. Same read-out and setting: for `COC(=O)N[C@H](C(=O)N1CCC[C@H]1c1ncc(-c2ccc(C#Cc3ccc4nc([C@@H]5CCCN5C(=O)[C@@H](NC(=O)OC)[C@@H](C)OC)[nH]c4c3)cc2)[nH]1)C(C)C` [Compound 1242] the value was less than 1 nM. Take `COC(=O)N[C@@H](C(=O)N1CCC[C@H]1CNC(=O)c1ccc(C#Cc2ccc3nc([C@@H]4CCCN4C(=O)[C@H](NC(=O)OC)c4ccccc4)[nH]c3c2)cn1)c1ccccc1` [Compound 1241]: the EC50 was less than 1 nM.
